This note sets out measurements from patent US20180155344A1, “TRICYCLIC PIPERIDINE COMPOUNDS” (ACTELION PHARMACEUTICALS LTD, priority 2015, published 2018).

Usually IC50 stands for the concentration at which inhibition is half-maximal.

The experiment concerns the target T1, human TPH1 (Homo sapiens, UniProt P17752).
T1 sequence (P17752 1-444): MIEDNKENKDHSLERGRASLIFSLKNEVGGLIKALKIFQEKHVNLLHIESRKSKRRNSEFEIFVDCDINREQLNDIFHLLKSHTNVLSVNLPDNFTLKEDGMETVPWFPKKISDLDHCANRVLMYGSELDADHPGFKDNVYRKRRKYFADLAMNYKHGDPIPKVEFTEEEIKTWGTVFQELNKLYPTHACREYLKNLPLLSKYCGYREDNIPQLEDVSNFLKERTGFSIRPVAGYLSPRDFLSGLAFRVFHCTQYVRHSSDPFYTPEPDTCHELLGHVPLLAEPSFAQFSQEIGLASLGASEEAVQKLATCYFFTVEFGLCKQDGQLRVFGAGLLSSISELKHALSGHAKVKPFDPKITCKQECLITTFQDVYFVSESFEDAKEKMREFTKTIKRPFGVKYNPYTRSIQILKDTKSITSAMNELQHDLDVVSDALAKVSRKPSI
Briefly: biochemical. A digest of the protocol: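 Inhibition is derived from 5-hydroxy-L-tryptophan fluorescence (540 nm emission, 300 nm excitation) after perchloric acid stop, relative to DMSO vehicle. Recombinant full-length human enzyme (40-80 nM) reacts with 40 μM tryptophan plus 100 μM methyltetrahydropterin, pH 7.6 Tris/DTT/catalase, 15° C, 60 min.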
In turn, `COc1ccc(C2c3c(nc4cc(C(F)(F)F)ccn34)CCN2C(=O)COc2ccc3c(c2C)CCN(C)C3)c(F)c1` (stereo not shown) [Example 3.3.7, 2-((2,5-dimethyl-1,2,3,4-tetrahydroisoquinolin-6-yl)oxy)-1-(1-(2-fluoro-4-methoxyphenyl)-7-(trifluoromethyl)-3,4-dihydroimidazo[1,2-a:5,4-c′]dipyridin-2(1H)-yl)ethan-1-one] showed a 50% inhibitory concentration (IC50) of 0.117 µM.

With `COc1ccc(C2c3c(nc4cc(C(F)(F)F)ccn34)CCN2C(=O)COc2ccc3ccccc3c2)cc1OC(F)F` (stereo not shown) [Example 3.12.1, 1-(1-(3-(difluoromethoxy)-4-methoxyphenyl)-7-(trifluoromethyl)-3,4-dihydroimidazo[1,2-a:5,4-c′]dipyridin-2(1H)-yl)-2-(naphthalen-2-yloxy)ethan-1-one], the concentration for half-maximal inhibition (IC50) came to 0.041 µM. This IC50 is about 2.9-fold lower than that of the compound before.

On to `COc1ccc(C2c3c(nc4cc(C(F)(F)F)ccn34)CCN2C(=O)COc2ccc(CN3CCOCC3)nc2Cl)cc1OC` (stereo not shown) [Example 3.1.27, 2-((2-chloro-6-(morpholinomethyl)pyridin-3-yl)oxy)-1-(1-(3,4-dimethoxyphenyl)-7-(trifluoromethyl)-3,4-dihydroimidazo[1,2-a:5,4-c′]dipyridin-2(1H)-yl)ethan-1-one], for which the IC50 is 0.084 µM.

For `COc1ccc(C2c3c(nc4cc(C(F)(F)F)ccn34)CCN2C(=O)COc2cnc3ccccc3c2)cc1OC` (stereo not shown) [Example 3.1.22], inhibition was half-maximal at 0.165 µM (IC50).

`COc1ccc(C2c3c(nc4cc(Cl)ccn34)CCN2C(=O)COc2ccc(Cl)cc2Cl)cc1OC` (stereo not shown) [Example 2.1.6, 1-(7-chloro-1-(3,4-dimethoxyphenyl)-3,4-dihydroimidazo[1,2-a:5,4-c′]dipyridin-2(1H)-yl)-2-(2,4-dichlorophenoxy)ethan-1-one]: the midpoint of inhibition, the IC50, lay at 0.053 µM.

`O=C(COc1ccc2ccccc2c1)N1CCc2nc3cc(C(F)(F)F)ccn3c2C1c1cccnc1` (stereo not shown) [Example 3.36.1, 2-(naphthalen-2-yloxy)-1-(1-(pyridin-3-yl)-7-(trifluoromethyl)-3,4-dihydroimidazo[1,2-a:5,4-c′]dipyridin-2(1H)-yl)ethan-1-one] showed an IC50 of 0.208 µM.

`COc1ccc(C2c3c(nc4cc(C(F)(F)F)ccn34)CCN2C(=O)COc2ccc(Cl)cc2Cl)cc1OC` (stereo not shown) [Example 3.1.2, 2-(2,4-Dichlorophenoxy)-1-(1-(3,4-dimethoxyphenyl)-7-(trifluoromethyl)-3,4-dihydroimidazo[1,2-a:5,4-c′]dipyridin-2(1H)-yl)ethan-1-one] returned an IC50 of 0.03 µM.

Consider `CS(=O)(=O)Nc1ccc(OCC(=O)N2CCc3nc4ccccn4c3C2c2ccc(C#N)cc2F)c(Cl)n1` (stereo not shown) [Example 1.20.1, N-(6-chloro-5-(2-(1-(4-cyano-2-fluorophenyl)-3,4-dihydroimidazo[1,2-a:5,4-c′]dipyridin-2(1H)-yl)-2-oxoethoxy)pyridin-2-yl)methanesulfonamide], for which the IC50 is 0.098 µM. This IC50 is about 3.3-fold higher than that of the compound before.

`N#Cc1ccc(C2c3c(nc4ccccn34)CCN2C(=O)COc2ccc(C(=O)NC3CC3)nc2Cl)c(F)c1` (stereo not shown) [Example 1.20.2, 6-chloro-5-(2-(1-(4-cyano-2-fluorophenyl)-3,4-dihydroimidazo[1,2-a:5,4-c′]dipyridin-2(1H)-yl)-2-oxoethoxy)-N-cyclopropylpicolinamide] showed an IC50 of 0.031 µM.

Take `O=C(COc1ccc2ccccc2c1)N1CCc2nc3cc(C(F)(F)F)ccn3c2C1c1ccc2c(c1)OCCO2` (stereo not shown) [Example 3.17.1, 1-(1-(2,3-dihydrobenzo[b][1,4]dioxin-6-yl)-7-(trifluoromethyl)-3,4-dihydroimidazo[1,2-a:5,4-c′]dipyridin-2(1H)-yl)-2-(naphthalen-2-yloxy)ethan-1-one]: the IC50 came out at 0.138 µM. This IC50 is about 4.5-fold higher than that of the compound before.

As for `O=C(COc1ccc(CN2CCOCC2)cc1Cl)N1CCc2nc3cc(C(F)(F)F)ccn3c2C1c1cc(-c2ccc(F)cc2)on1` (stereo not shown) [Example 3.47.2, 2-(2-chloro-4-(morpholinomethyl)phenoxy)-1-(1-(5-(4-fluorophenyl)isoxazol-3-yl)-7-(trifluoromethyl)-3,4-dihydroimidazo[1,2-a:5,4-c′]dipyridin-2(1H)-yl)ethan-1-one], it took 0.041 µM to reach half-maximal inhibition (IC50).

Take `COc1ccc(C2c3c(nc4ccc(Cl)cn34)CCN2C(=O)COc2ccc3ccccc3c2)cc1OC` (stereo not shown) [Example 9.1.1, 1-(8-chloro-1-(3,4-dimethoxyphenyl)-3,4-dihydroimidazo[1,2-a:5,4-c′]dipyridin-2(1H)-yl)-2-(naphthalen-2-yloxy)ethan-1-one]: the IC50 stood at 0.145 µM.

Regarding `CN(C)c1ccc(OCC(=O)N2CCc3nc4ccccn4c3C2c2ccc(Cl)cc2F)c(Cl)n1` (stereo not shown) [Example 1.4.12, 1-(1-(4-chloro-2-fluorophenyl)-3,4-dihydroimidazo[1,2-a:5,4-c′]dipyridin-2(1H)-yl)-2-((2-chloro-6-(dimethylamino)pyridin-3-yl)oxy)ethan-1-one], the IC50 turned out to be 0.058 µM.

As for `COc1ccc(C2c3c(nc4cc(C(F)(F)F)ccn34)CCN2C(=O)COc2ccc3ccncc3c2)cc1OC` (stereo not shown) [Example 3.1.20, 1-(1-(3,4-dimethoxyphenyl)-7-(trifluoromethyl)-3,4-dihydroimidazo[1,2-a:5,4-c′]dipyridin-2(1H)-yl)-2-(isoquinolin-7-yloxy)ethan-1-one], the IC50 was 0.019 µM.

On to `COc1ccc(C2c3c(nc4cc(C(F)(F)F)ccn34)CCN2C(=O)COc2cccnc2C2CC2)cc1OC` (stereo not shown) [Example 3.1.35], for which the 50% inhibitory concentration (IC50) came to 0.336 µM.

On to `O=C(COc1ccc(N2CCOCC2)cc1Cl)N1CCc2nc3cccnn3c2C1c1ccc(C2CC2)cc1F` (stereo not shown) [Example 16.1.1, 2-(2-chloro-4-morpholinophenoxy)-1-(9-(4-cyclopropyl-2-fluorophenyl)-6,9-dihydropyrido[4′,3′:4,5]imidazo[1,2-b]pyridazin-8(7H)-yl)ethan-1-one], for which the 50% inhibitory concentration (IC50) stood at 0.019 µM.

Regarding `O=C(COc1ccc(CN2CCOCC2)cc1Cl)N1CCc2nc3cc(C(F)(F)F)ccn3c2C1c1ccc(Cl)cc1F` (stereo not shown) [Example 3.4.2, 1-(1-(4-chloro-2-fluorophenyl)-7-(trifluoromethyl)-3,4-dihydroimidazo[1,2-a:5,4-c′]dipyridin-2(1H)-yl)-2-(2-chloro-4-(morpholinomethyl)phenoxy)ethan-1-one], the 50% inhibitory concentration (IC50) came out at 0.007 µM.

Regarding `Cc1ccc(C2c3c(nc4cc(C(F)(F)F)ccn34)CCN2C(=O)COc2nn(C)c(C(F)(F)F)c2Cl)c(F)c1` (stereo not shown) [Example 3.22.3, 2-((4-chloro-1-methyl-5-(trifluoromethyl)-1H-pyrazol-3-yl)oxy)-1-(1-(2-fluoro-4-methylphenyl)-7-(trifluoromethyl)-3,4-dihydroimidazo[1,2-a:5,4-c′]dipyridin-2(1H)-yl)ethan-1-one], the IC50 came out at 0.033 µM.

For the compound `O=C(COc1ccc(N2CCOCC2)nc1Cl)N1CCc2nc3cccnn3c2C1c1ncc(C2CC2)cc1F` (stereo not shown) [Example 16.2.1, 2-((2-chloro-6-morpholinopyridin-3-yl)oxy)-1-(9-(5-cyclopropyl-3-fluoropyridin-2-yl)-6,9-dihydropyrido[4′,3′:4,5]imidazo[1,2-b]pyridazin-8(7H)-yl)ethan-1-one], the IC50 amounted to 0.014 µM.

For the compound `CN(C)C(=O)c1csc(C2c3c(nc4cccnn34)CCN2C(=O)COc2ccc(N3CCOCC3)nc2Cl)c1` (stereo not shown) [Example 16.3.1, 5-(8-(2-((2-Chloro-6-morpholinopyridin-3-yl)oxy)acetyl)-6,7,8,9-tetrahydropyrido[4′,3′:4,5]imidazo[1,2-b]pyridazin-9-yl)-N,N-dimethylthiophene-3-carboxamide], the IC50 stood at 0.043 µM. This IC50 is about 3.1-fold higher than that of the compound before.

As to `CS(=O)(=O)Nc1ccc(OCC(=O)N2CCc3nc4cc(F)ccn4c3C2c2ccc(Cl)cc2F)c(Cl)n1` (stereo not shown) [Example 14.1.1, N-(6-chloro-5-(2-(1-(4-chloro-2-fluorophenyl)-7-fluoro-3,4-dihydroimidazo[1,2-a:5,4-c′]dipyridin-2(1H)-yl)-2-oxoethoxy)pyridin-2-yl)methanesulfonamide], the IC50 was 0.074 µM.

Regarding `COc1ccc(C2c3c(nc4cc(C(F)(F)F)ccn34)CCN2C(=O)COc2ccc3c(c2C)CCN(C(=O)OC(C)(C)C)C3)c(F)c1` (stereo not shown) [Example 3.3.4, tert-butyl 6-(2-(1-(2-fluoro-4-methoxyphenyl)-7-(trifluoromethyl)-3,4-dihydroimidazo[1,2-a:5,4-c′]dipyridin-2(1H)-yl)-2-oxoethoxy)-5-methyl-3,4-dihydroisoquinoline-2(1H)-carboxylate], the IC50 is 0.178 µM.

`COc1ccc(C2c3c(nc4cc(C(F)(F)F)ccn34)CCN2C(=O)COc2cccc(C(F)(F)F)c2Cl)cc1OC` (stereo not shown) [Example 3.1.13, 2-(2-chloro-3-(trifluoromethyl)phenoxy)-1-(1-(3,4-dimethoxyphenyl)-7-(trifluoromethyl)-3,4-dihydroimidazo[1,2-a:5,4-c′]dipyridin-2(1H)-yl)ethan-1-one] came in with an IC50 of 0.019 µM. Against the preceding compound, the IC50 is about 9.4-fold lower.

Consider `COc1ccc(C2c3c(nc4ccc(C(F)(F)F)cn34)CCN2C(=O)COc2ccc3ccccc3c2)cc1OC` (stereo not shown) [Example 12.1.1, 1-(1-(3,4-dimethoxyphenyl)-8-(trifluoromethyl)-3,4-dihydroimidazo[1,2-a:5,4-c′]dipyridin-2(1H)-yl)-2-(naphthalen-2-yloxy)ethan-1-one], for which it took 0.183 µM to reach half-maximal inhibition (IC50).

For `O=C(COc1cccnc1Cl)N1CCc2nc3ccccn3c2C1c1ccc(C2CC2)cc1F` (stereo not shown) [Example 1.5.4, 2-((2-chloropyridin-3-yl)oxy)-1-(1-(4-cyclopropyl-2-fluorophenyl)-3,4-dihydroimidazo[1,2-a:5,4-c′]dipyridin-2(1H)-yl)ethan-1-one], the IC50 was found to be 0.034 µM.
